Reference: US8741836B2, “Polypeptides” (Novo Nordisk A/S, priority 2011, dated 2014)
Starred links: 1 amine or outer side, 2 acyl side, 3 side chain; linkers in the order of their positions; H or OH if unused. Positions of bridges follow the written chain, without caps; N, C: chain ends. Non-standard residues stand in square brackets, D forms with d. Residues, ends and D or L forms follow the SMILES beside them. *: point of attachment. C20 diacid = O=C(O)CCCCCCCCCCCCCCCCCCC(=O)*; γGlu = O=C(O)[C@H](CCC(=O)[*:2])N[*:1]; AEEA = NCCOCCOCC(=O)O

Assay: Assay (III) ThT fibrillation assay for physical stability
Type: physicochemical
Details: for ThT pH 4.0 lag time: pH 4.0, ThT fibrillation assay
From the text: Assay (III)—ThT Fibrillation Assays for the Assessment of Physical Stability of Protein formulations Low physical stability of a polypeptide may lead to amyloid fibril formation, which is observed as well-ordered, thread-like macromolecular structures in the sample eventually resulting in gel formation. This has traditionally been measured by visual inspection of the sample. However, that kind of measurement is very subjective and depending on the observer. Therefore, the application of a small molecule indicator probe is much more advantageous. Thioflavin T (ThT) is such a probe and has a distinct fluorescence signature when binding to fibrils [Naiki et al. (1989) Anal. Biochem. 177, 244-249; LeVine (1999) Methods. Enzymol. […], 274-284]. The time course for fibril formation can be described by a sigmoidal curve with the following expression [Nielsen et al. (2001) Biochemistry 40, 6036-6046]: [formula] Here, F is the ThT fluorescence at the time t. The constant t0 is the time needed to reach 50% of maximum fluorescence. […] Few of those intermediates nucleate to form a template onto which further intermediates may assembly and the fibrillation proceeds. The lag-time corresponds to the interval in which the critical mass of nucleus is built up and the apparent rate constant is the rate with which the fibril itself is formed. Sample Preparation Samples were prepared freshly before each assay. Each sample composition is described in each example. The pH of the sample was adjusted to the desired value using appropriate amounts of concentrated NaOH and HClO4 or HCl. Thioflavin T was added to the samples from a stock solution in H2O to a final concentration of 1 μM. Sample aliquots of 200 μl were placed in a 96 well microtiter plate (Packard OptiPlate™-96, white polystyrene). Usually, four or eight replica of each sample (corresponding to one test condition) were placed in one column of wells. The plate was sealed with Scotch Pad (Qiagen). Incubation and Fluorescence Measurement Incubation at given temperature, shaking and measurement of the ThT fluorescence emission were done in a Fluoroskan Ascent FL fluorescence platereader or Varioskan platereader (Thermo Labsystems). The temperature was adjusted to 37° C. The orbital shaking was adjusted to 960 rpm with an amplitude of 1 mm in all the presented data. Fluorescence measurement was done using excitation through a 444 nm filter and measurement of emission through a 485 nm filter. Each run was initiated by incubating the plate at the assay temperature for 10 min. The plate was measured every 20 minutes for a desired period of time. Between each measurement, the plate was shaken and heated as described. Data Handling The measurement points were saved in Microsoft Excel format for further processing and curve drawing and fitting was performed using GraphPad Prism. The background emission from ThT in the absence of fibrils was negligible. The data points are typically a mean of four or eight samples and shown with standard deviation error bars. Only data obtained in the same experiment (i.e. samples on the same plate) are presented in the same graph ensuring a relative measure of fibrillation between experiments. The data set may be fitted to Eq. (1). However, since full sigmodial curves in this case are not always achieved during the measurement time, the degree of fibrillation is expressed as ThT fluorescence tabulated as the mean of the samples and shown with the standard deviation at various time points. Measurement of Initial and Final Concentrations The polypeptide concentration in each of the tested formulations were measured both before application in the ThT fibrillation assay (“Initial”) and after completion of the ThT fibrillation (“After ThT assay”). Concentrations were determined by reverse HPLC methods using a pramlintide standard as a reference. Before measurement after completion 150 μl was collected from each of the replica and transferred to an Eppendorf tube. […]

ThT pH 4.0 lag time (physical stability in fibrillogenesis assay)	ThT pH 4.0 lag time	Compound
>45 h	–	CC[C@H](C)[C@H](NC(=O)[C@@H]1CCCN1C(=O)CNC(=O)[C@H](Cc1ccccc1)NC(=O)[C@H](CO)NC(=O)[C@H](CO)NC(=O)[C@H](CO)NC(=O)[C@H](CO)NC(=O)[C@H](CCCNC(=N)N)NC(=O)[C@H](Cc1cnc[nH]1)NC(=O)[C@H](CC(C)C)NC(=O)[C@H](Cc1ccccc1)NC(=O)[C@H](CCC(=O)O)NC(=O)[C@H](C)NC(=O)[C@H](CC(C)C)NC(=O)[C@H](CCCNC(=N)N)NC(=O)[C@H](CCC(N)=O)NC(=O)[C@@H](NC(=O)[C@H](C)NC(=O)[C@@H]1CSSC[C@H](NC(=O)[C@H](Cc2cnc[nH]2)NC(=O)CC[C@H](NC(=O)CCCCCCCCCCCCCCCCCCC(=O)O)C(=O)O)C(=O)N[C@@H](CC(N)=O)C(=O)N[C@@H]([C@@H](C)O)C(=O)N[C@@H](C)C(=O)N[C@@H]([C@@H](C)O)C(=O)N1)[C@@H](C)O)C(=O)N[C@@H](CC(C)C)C(=O)N1CCC[C@H]1C(=O)N1CCC[C@H]1C(=O)N[C@H](C(=O)N[C@@H](CC(=O)O)C(=O)N[C@H](C(=O)NCC(=O)N[C@@H](CO)C(=O)N[C@@H](CC(=O)O)C(=O)N[C@H](C(=O)N[C@@H](Cc1ccc(O)cc1)C(N)=O)[C@@H](C)O)C(C)C)[C@@H](C)O [Example 9, N-alpha-[(S)-4-Carboxy-4-(19-carboxynonadecanoylamino)butyryl]-[His1,Glu14,His17,Arg18,Ser21,Ser22,Asp31,Asp35]-pramlintide] ({C20 diacid-γGlu}-HCNTATCATQRLAEFLHRSSSSFGPILPPTDVGSDTY-NH2; disulfide 2-7)
–	>45 h	CC[C@H](C)[C@H](NC(=O)[C@@H]1CCCN1C(=O)CNC(=O)[C@H](Cc1ccccc1)NC(=O)[C@H](CC(N)=O)NC(=O)[C@H](CC(N)=O)NC(=O)[C@H](CO)NC(=O)[C@H](CO)NC(=O)[C@H](Cc1c[nH]cn1)NC(=O)[C@H](Cc1c[nH]cn1)NC(=O)[C@H](CC(C)C)NC(=O)[C@H](Cc1ccccc1)NC(=O)[C@H](CCC(=O)O)NC(=O)[C@H](C)NC(=O)[C@H](CC(C)C)NC(=O)[C@H](CCCNC(=N)N)NC(=O)[C@H](CCC(N)=O)NC(=O)[C@@H](NC(=O)[C@H](C)NC(=O)[C@@H]1CSSC[C@H](NC(=O)[C@H](Cc2c[nH]cn2)NC(=O)[C@H](Cc2c[nH]cn2)NC(=O)[C@H](Cc2c[nH]cn2)NC(=O)CC[C@H](NC(=O)CCCCCCCCCCCCCCCCCCC(=O)O)C(=O)O)C(=O)N[C@@H](CC(N)=O)C(=O)N[C@@H]([C@@H](C)O)C(=O)N[C@@H](C)C(=O)N[C@@H]([C@@H](C)O)C(=O)N1)[C@@H](C)O)C(=O)N[C@@H](CC(C)C)C(=O)N1CCC[C@H]1C(=O)N1CCC[C@H]1C(=O)N[C@H](C(=O)N[C@@H](CC(N)=O)C(=O)N[C@H](C(=O)NCC(=O)N[C@@H](CO)C(=O)N[C@@H](Cc1c[nH]cn1)C(=O)N[C@H](C(=O)N[C@@H](Cc1ccc(O)cc1)C(N)=O)[C@@H](C)O)C(C)C)[C@@H](C)O [Example 31, N-alpha-[(S)-4-Carboxy-4-(19-carboxynonadecanoylamino)butyryl]-His-His-[His1,Glu14,His17,His35]-pramlintide] ({C20 diacid-γGlu}-HHHCNTATCATQRLAEFLHHSSNNFGPILPPTNVGSHTY-NH2; disulfide 4-9)
–	>45 h	CC[C@H](C)[C@H](NC(=O)[C@@H]1CCCN1C(=O)CNC(=O)[C@H](Cc1ccccc1)NC(=O)[C@H](CC(N)=O)NC(=O)[C@H](CC(N)=O)NC(=O)[C@H](CO)NC(=O)[C@H](CO)NC(=O)[C@H](Cc1c[nH]cn1)NC(=O)[C@H](Cc1c[nH]cn1)NC(=O)[C@H](CC(C)C)NC(=O)[C@H](Cc1ccccc1)NC(=O)[C@H](CCC(=O)O)NC(=O)[C@H](C)NC(=O)[C@H](CC(C)C)NC(=O)[C@H](CCCNC(=N)N)NC(=O)[C@H](CCC(N)=O)NC(=O)[C@@H](NC(=O)[C@H](C)NC(=O)[C@@H]1CSSC[C@H](NC(=O)[C@H](Cc2c[nH]cn2)NC(=O)[C@H](Cc2c[nH]cn2)NC(=O)[C@H](Cc2c[nH]cn2)NC(=O)CC[C@H](NC(=O)CCCCCCCCCCCCCCCCCCC(=O)O)C(=O)O)C(=O)N[C@@H](Cc2c[nH]cn2)C(=O)N[C@@H]([C@@H](C)O)C(=O)N[C@@H](C)C(=O)N[C@@H]([C@@H](C)O)C(=O)N1)[C@@H](C)O)C(=O)N[C@@H](CC(C)C)C(=O)N1CCC[C@H]1C(=O)N1CCC[C@H]1C(=O)N[C@H](C(=O)N[C@@H](CC(N)=O)C(=O)N[C@H](C(=O)NCC(=O)N[C@@H](CO)C(=O)N[C@@H](Cc1c[nH]cn1)C(=O)N[C@H](C(=O)N[C@@H](Cc1ccc(O)cc1)C(N)=O)[C@@H](C)O)C(C)C)[C@@H](C)O [Example 32, N-alpha-[(S)-4-Carboxy-4-(19-carboxynonadecanoylamino)butyryl]-His-His-[His1,His3,Glu14,His17,His35]-pramlintide] ({C20 diacid-γGlu}-HHHCHTATCATQRLAEFLHHSSNNFGPILPPTNVGSHTY-NH2; disulfide 4-9)

Continued, compound first:

Compound	ThT pH 4.0 lag time (physical stability in fibrillogenesis assay)	ThT pH 4.0 lag time
CC[C@H](C)[C@H](NC(=O)[C@@H]1CCCN1C(=O)CNC(=O)[C@H](Cc1ccccc1)NC(=O)[C@H](CC(N)=O)NC(=O)[C@H](C)NC(=O)[C@H](CO)NC(=O)[C@H](CO)NC(=O)[C@H](CCCNC(=N)N)NC(=O)[C@H](Cc1cnc[nH]1)NC(=O)[C@H](CC(C)C)NC(=O)[C@H](Cc1ccccc1)NC(=O)[C@H](CCC(=O)O)NC(=O)[C@H](C)NC(=O)[C@H](CC(C)C)NC(=O)[C@H](CCCNC(=N)N)NC(=O)[C@H](CCC(N)=O)NC(=O)[C@@H](NC(=O)[C@H](C)NC(=O)[C@@H]1CSSC[C@H](NC(=O)[C@H](CCCCN)NC(=O)[C@@H](CCCNC(=N)N)NC(=O)[C@@H](CCCNC(=N)N)NC(=O)COCCOCCNC(=O)COCCOCCNC(=O)CC[C@H](NC(=O)CCCCCCCCCCCCCCCCCCC(=O)O)C(=O)O)C(=O)N[C@@H](CC(N)=O)C(=O)N[C@@H]([C@@H](C)O)C(=O)N[C@@H](C)C(=O)N[C@@H]([C@@H](C)O)C(=O)N1)[C@@H](C)O)C(=O)N[C@@H](CC(C)C)C(=O)N1CCC[C@H]1C(=O)N1CCC[C@H]1C(=O)N[C@H](C(=O)N[C@@H](CC(N)=O)C(=O)N[C@H](C(=O)NCC(=O)N[C@@H](CO)C(=O)N[C@@H](CO)C(=O)N[C@H](C(=O)N[C@@H](Cc1ccc(O)cc1)C(N)=O)[C@@H](C)O)C(C)C)[C@@H](C)O [Example 38, N-alpha-[2-(2-{2-[2-(2-{2-[(S)-4-Carboxy-4-(19-carboxyheptadecanoylamino)butyrylamino]ethoxy}ethoxy)acetylamino]ethoxy}ethoxy)acetyl]-D-Arg-D-Arg-[Glu14,His17,Arg18,Ala21,Ser35]-pramlintide] ({C20 diacid-γGlu-AEEA-AEEA}-[dR][dR]KCNTATCATQRLAEFLHRSSANFGPILPPTNVGSSTY-NH2; disulfide 4-9)	>45 h	–
CC[C@H](C)[C@H](NC(=O)[C@@H]1CCCN1C(=O)CNC(=O)[C@H](Cc1ccccc1)NC(=O)[C@H](CC(N)=O)NC(=O)[C@H](CC(N)=O)NC(=O)[C@H](CO)NC(=O)[C@H](CO)NC(=O)[C@H](Cc1c[nH]cn1)NC(=O)[C@H](Cc1cnc[nH]1)NC(=O)[C@H](CC(C)C)NC(=O)[C@H](Cc1ccccc1)NC(=O)[C@H](CCC(=O)O)NC(=O)[C@H](C)NC(=O)[C@H](CC(C)C)NC(=O)[C@H](CCCNC(=N)N)NC(=O)[C@H](CCC(N)=O)NC(=O)[C@@H](NC(=O)[C@H](C)NC(=O)[C@@H]1CSSC[C@H](NC(=O)[C@H](CCCCN)NC(=O)CC[C@H](NC(=O)CCCCCCCCCCCCCCCCCCC(=O)O)C(=O)O)C(=O)N[C@@H](CC(N)=O)C(=O)N[C@@H]([C@@H](C)O)C(=O)N[C@@H](C)C(=O)N[C@@H]([C@@H](C)O)C(=O)N1)[C@@H](C)O)C(=O)N[C@@H](CC(C)C)C(=O)N1CCC[C@H]1C(=O)N1CCC[C@H]1C(=O)N[C@H](C(=O)N[C@@H](CC(N)=O)C(=O)N[C@H](C(=O)NCC(=O)N[C@@H](CO)C(=O)N[C@@H](CC(N)=O)C(=O)N[C@H](C(=O)N1CCC[C@H]1C(N)=O)[C@@H](C)O)C(C)C)[C@@H](C)O [Example 52, N-alpha-[(S)-4-Carboxy-4-(19-carboxynonadecanoylamino)butyryl]-[Glu14,His17,Pro37]-pramlintide] ({C20 diacid-γGlu}-KCNTATCATQRLAEFLHHSSNNFGPILPPTNVGSNTP-NH2; disulfide 2-7)	>45 h	–
